Source: ChEMBL document CHEMBL1151529, “Conformationally constrained analogues of DAG.7. Interaction of a medium-size -lactone with protein kinase C (PK-C)_” (Bioorg Med Chem Lett, 1994)
pKi: −log10 of the molar value.

Experiments:
[1] = Displacement of [3H]phorbol-12,13-dibutyrate from mouse brain protein kinase C
[2] = target: Protein kinase C alpha type (Rattus norvegicus, UniProt P05696); assay: Displacement of [3H]phorbol-12,13-dibutyrate from rat brain protein kinase C alpha

Structure (SMILES) | pKi [1] | pKi [2]
CCCCCCCCCCCCCC(=O)O[C@H]1CC(=O)O[C@@H]1CO | 5.28 | 
CCCCCCCCCCCCCC(=O)O[C@H]1CCC(=O)O[C@@H]1CO | 4.52 | 
CCCCCCCCCCCCCC(=O)O[C@@H]1CCCC(=O)O[C@H]1CO |  | 4.39
CCCCCCCCCCCCCC(=O)O[C@@H]1CC(=O)O[C@H]1CO | 5.60 | 
CCCCCCCCCCCCCC(=O)O[C@@H]1CCC(=O)O[C@H]1CO | 5.55 | 
